Literature values, collected in patent US9938200B2, “Methods for improving bud break” (priority 2010, dated 2018).

Test system: vines
Details: use over time

N#CN [hydrogen cyanamide]
lowering of the fruitability of vines: 20-30 % per year
